US7553966B2, “Glucocorticoid mimetics, methods of making them, pharmaceutical compositions, and uses thereof” (Boehringer Ingelheim Pharmaceuticals, Inc., priority 2002, dated 2009)

Molecular target: T1, human glucocorticoid receptor (GR) complex (Homo sapiens, UniProt P04150)
T1 construct: made in house; host or cells: insect expression system (baculovirus lysate)
T1 sequence (P04150 1-777): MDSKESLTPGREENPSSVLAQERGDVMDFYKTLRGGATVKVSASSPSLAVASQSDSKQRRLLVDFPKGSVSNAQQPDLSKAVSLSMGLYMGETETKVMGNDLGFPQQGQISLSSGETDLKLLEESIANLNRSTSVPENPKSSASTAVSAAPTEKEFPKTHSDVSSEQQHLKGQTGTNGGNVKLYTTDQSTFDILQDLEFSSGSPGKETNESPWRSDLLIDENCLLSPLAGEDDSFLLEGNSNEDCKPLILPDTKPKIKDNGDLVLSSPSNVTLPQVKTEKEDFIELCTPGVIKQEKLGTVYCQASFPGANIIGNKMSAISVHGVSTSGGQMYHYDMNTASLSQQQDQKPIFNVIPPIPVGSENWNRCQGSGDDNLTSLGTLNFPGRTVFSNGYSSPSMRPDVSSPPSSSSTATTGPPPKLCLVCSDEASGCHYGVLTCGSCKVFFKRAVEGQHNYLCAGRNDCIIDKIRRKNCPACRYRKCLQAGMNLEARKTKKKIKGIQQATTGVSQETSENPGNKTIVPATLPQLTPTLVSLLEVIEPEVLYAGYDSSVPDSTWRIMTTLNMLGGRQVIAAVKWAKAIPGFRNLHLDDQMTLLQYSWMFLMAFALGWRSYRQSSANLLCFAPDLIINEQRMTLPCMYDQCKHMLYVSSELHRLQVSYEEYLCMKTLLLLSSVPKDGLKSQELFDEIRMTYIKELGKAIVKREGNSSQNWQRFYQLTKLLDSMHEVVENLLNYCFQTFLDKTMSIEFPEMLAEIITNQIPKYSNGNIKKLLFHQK
Experiment: Glucocorticoid Receptor Competitive Binding Assay (fluorescence polarization, TAMRA-labeled dexamethasone probe)
Settings: qualitative statement; competition with TAMRA-labeled dexamethasone
Description: Compounds of the invention were evaluated for binding to the steroid receptor by a fluorescence polarization competitive binding assay.
A. Glucocorticoid Receptor Competitive Binding Assay
Step 1. Characterization of the Fluorescent Probe
The wavelengths for maximum excitation and emission of the fluorescent probe should first be measured. An example of such a probe is rhodamine (TAMRA)-labeled dexamethasone.
The affinity of the probe for the steroid receptor was then determined in a titration experiment. The fluorescence polarization value of the probe in assay buffer was measured on an SLM-8100 fluorometer using the excitation and emission maximum values described above. Aliquots of expression vector lysate were added and fluorescence polarization was measured after each addition until no further change in polarization value was observed. Non-linear least squares regression analysis was used to calculate the dissociation constant of the probe from the polarization values obtained for lysate binding to the probe.
Step 2. Screening for Inhibitors of Probe Binding
This assay uses fluorescence polarization (FP) to quantitate the ability of test compounds to compete with tetramethyl rhodamine (TAMRA)-labeled dexamethasone for binding to a human glucocorticoid receptor (GR) complex prepared from an insect expression system. The assay buffer was: 10 mM TES, 50 mM KCl, 20 mM Na2MoO4. 2H2O, 1.5 mM EDTA, 0.04% w/v CHAPS, 10% v/v glycerol, 1 mM dithiothreitol, pH 7.4. Test compounds were dissolved to 1 mM in neat DMSO and then further diluted to 10× assay concentration in assay buffer supplemented with 10% v/v DMSO. Test compounds were serially diluted at 10× assay concentrations in 10% DMSO-containing buffer in 96-well polypropylene plates. […] Positive controls were reaction mixtures containing no test compound; negative controls (blanks) were reaction mixtures containing 0.7 μM to 2 μM dexamethasone. […] IC50 values were determined by iterative non-linear curve fitting of the FP signal data to a 4-parameter logistic equation.

activity in the GR binding assay | Structure (SMILES)
potent activity | CC(C)(CC(O)(Cc1cc2ccncc2[nH]1)C(F)(F)F)c1ccc(F)cc1 (stereo not drawn) [1,1,1-Trifluoro-4-(4-fluorophenyl)-4-methyl-2-(1H-pyrrolo[2,3-c]pyridin-2-ylmethyl)pentan-2-ol]
potent activity | CC(C)(CC(O)(Cc1cc2ccncc2[nH]1)C(F)(F)F)c1cc(F)cc2c1OCC2 (stereo not drawn) [1,1,1-Trifluoro-4-(5-fluoro-2,3-dihydrobenzofuran-7-yl)-4-methyl-2-(1H-pyrrolo[2,3-c]pyridin-2-ylmethyl)pentan-2-ol]
potent activity | CC(C)(CC(O)(Cc1ccnc(Cl)c1)C(F)(F)F)c1cc(F)ccc1O (stereo not drawn) [1,1,1-Trifluoro-4-(5-fluoro-2-hydroxyphenyl)-4-methyl-2-(2-chloropyridin-4-ylmethyl)pentan-2-ol]
potent activity | CC(C)(CC(O)(Cc1cc(Cl)nc2ccccc12)C(F)(F)F)c1cc(F)ccc1O (stereo not drawn) [1,1,1-Trifluoro-4-(5-fluoro-2-hydroxyphenyl)-4-methyl-2-(2-chloroquinolin-4-ylmethyl)pentan-2-ol]
potent activity | COc1ccc(F)cc1C(C)(C)CC(O)(Cc1cc2cccnc2[nH]1)C(F)(F)F (stereo not drawn) [1,1,1-Trifluoro-4-(5-fluoro-2-methoxyphenyl)-4-methyl-2-(1H-pyrrolo[2,3-b]pyridin-2-ylmethyl)pentan-2-ol]
potent activity | COc1ccc(F)cc1C(C)(C)CC(O)(Cc1cc2ncccc2[nH]1)C(F)(F)F (stereo not drawn) [1,1,1-Trifluoro-4-(5-fluoro-2-methoxyphenyl)-4-methyl-2-(1H-pyrrolo[3,2-b]pyridin-2-ylmethyl)pentan-2-ol]
potent activity | COc1ccc(F)cc1C(C)(C)CC(O)(Cc1ccnc(Br)c1)C(F)(F)F (stereo not drawn) [1,1,1-Trifluoro-4-(5-fluoro-2-methoxyphenyl)-4-methyl-2-(2-bromopyridin-4-ylmethyl)pentan-2-ol]
potent activity | COc1ccc(F)cc1C(C)(C)CC(O)(Cc1ccnc(Cl)c1)C(F)(F)F (stereo not drawn) [1,1,1-Trifluoro-4-(5-fluoro-2-methoxyphenyl)-4-methyl-2-(2-chloropyridin-4-ylmethyl)pentan-2-ol]
potent activity | COc1ccc(F)cc1C(C)(C)CC(O)(Cc1cc(Cl)nc2ccccc12)C(F)(F)F (stereo not drawn) [1,1,1-Trifluoro-4-(5-fluoro-2-methoxyphenyl)-4-methyl-2-(2-chloroquinolin-4-ylmethyl)pentan-2-ol]
potent activity | COc1ccc(F)cc1C(C)(C)CC(O)(Cc1nc2cccc(C)c2[nH]1)C(F)(F)F (stereo not drawn) [1,1,1-Trifluoro-4-(5-fluoro-2-methoxyphenyl)-4-methyl-2-(7-methyl-1H-benzoimidazol-2-ylmethyl)pentan-2-ol]
potent activity | Cc1ccc(F)cc1C(C)(C)CC(O)(Cc1nc2cccc(C)c2[nH]1)C(F)(F)F (stereo not drawn) [1,1,1-Trifluoro-4-(5-fluoro-2-methylphenyl)-4-methyl-2-(7-methyl-1H-benzoimidazol-2-ylmethyl)pentan-2-ol]
potent activity | Cc1ccc(C(C)(C)CC(O)(Cc2ccnc3ccccc23)C(F)(F)F)cc1 (stereo not drawn) [1,1,1-Trifluoro-4-methyl-2-quinolin-4-ylmethyl-4-p-tolylpentan-2-ol]
potent activity | CC(C)(CC(O)(Cc1ccnc2ccccc12)C(F)(F)F)c1ccsc1 (stereo not drawn) [1,1,1-Trifluoro-4-methyl-2-quinolin-4-ylmethyl-4-thiophen-3-ylpentan-2-ol]
potent activity | CC(C)(CC(O)(Cc1ccnc2ccccc12)C(F)(F)F)c1ccc2ccccc2c1 (stereo not drawn) [1,1,1-Trifluoro-4-methyl-4-naphthalen-2-yl-2-quinolin-4-ylmethylpentan-2-ol]
potent activity | COc1ccc(F)cc1C(C)(C)CC(O)(Cc1cc2ccccc2[nH]1)CC1CC1 (stereo not drawn) [1-Cyclopropyl-4-(5-fluoro-2-methoxyphenyl)-2-(indol-2-ylmethyl)-4-methylpentan-2-ol]
potent activity | COc1ccc(F)cc1C(C)(C)CC(O)(Cn1cc(C#N)c2ccccc21)C(F)(F)F (stereo not drawn) [1-[4-(5-Fluoro-2-methoxyphenyl)-2-hydroxy-4-methyl-2-trifluoromethylpentyl]-1H-indole-3-carbonitrile]
potent activity | COc1ccc(F)cc1C(C)(C)CC(O)(Cc1nc2ccccc2[nH]1)C(F)(F)F (stereo not drawn) [2-(1H-Benzimidazol-2-ylmethyl)-1,1,1-trifluoro-4-(5-fluoro-2-methoxyphenyl)-4-methylpentan-2-ol]
potent activity | CC(C)(CC(O)(Cc1[nH]c2ccccc2c1C#N)C(F)(F)F)c1ccccc1 (stereo not drawn) [2-(2-Hydroxy-4-methyl-4-phenyl-2-trifluoromethylpentyl)-1H-indole-3-carbonitrile]
potent activity | COc1ccc(F)cc1C(C)(C)CC(O)(Cn1cc(C)nc1-c1ccccc1)C(F)(F)F (stereo not drawn) [2-(2-Phenyl-4-methylimidazol-1-ylmethyl)-1,1,1-trifluoro-4-(5-fluoro-2-methoxyphenyl)-4-methylpentan-2-ol]
potent activity | COc1ccc(F)cc1C(C)(C)CC(O)(Cn1ccnc1-c1ccccc1)C(F)(F)F (stereo not drawn) [2-(2-Phenylimidazol-1-ylmethyl)-1,1,1-trifluoro-4-(5-fluoro-2-methoxyphenyl)-4-methylpentan-2-ol]
potent activity | CC(C)(CC(O)(Cc1ccnc2ccccc12)C(F)(F)F)c1ccc2ccccc2c1O (stereo not drawn) [2-(4,4,4-Trifluoro-3-hydroxy-1,1-dimethyl-3-quinolin-4-ylmethylbutyl)naphthalen-1-ol]
potent activity | COc1ccc(F)cc1C(C)(C)CC(O)(Cc1nc2cc(C)cc(C)c2[nH]1)C(F)(F)F (stereo not drawn) [2-(5,7-Dimethyl-1H-benzoimidazol-2-ylmethyl)-1,1,1-trifluoro-4-(5-fluoro-2-methoxyphenyl)-4-methylpentan-2-ol]
potent activity | COc1ccc(F)cc1C(C)(C)CC(O)(Cc1nc2ccc(F)c(F)c2[nH]1)C(F)(F)F (stereo not drawn) [2-(6,7-Difluoro-1H-benzoimidazol-2-ylmethyl)-1,1,1-trifluoro-4-(5-fluoro-2-methoxyphenyl)-4-methylpentan-2-ol]
potent activity | CCc1cccc(C(C)(C)CC(O)(Cc2ccnc3ccccc23)C(F)(F)F)c1O (stereo not drawn) [2-Ethyl-6-(4,4,4-trifluoro-3-hydroxy-1,1-dimethyl-3-quinolin-4-ylmethylbutyl)phenol]
potent activity | CCc1cccc(C(C)(C)CC(O)(Cc2cc3ccccc3[nH]2)C(F)(F)F)c1O (stereo not drawn) [2-Ethyl-6-[4,4,4-trifluoro-3-hydroxy-3-(1H-indol-2-ylmethyl)-1,1-dimethylbutyl]phenol]
potent activity | COc1cccc(C(C)(C)CC(O)(Cc2cc3cc(C#N)ccc3[nH]2)C(F)(F)F)c1 (stereo not drawn) [2-[2-Hydroxy-4-(3-methoxyphenyl)-4-methyl-2-trifluoromethylpentyl]-1H-indole-5-carbonitrile]

Structure (SMILES) | activity in the GR binding assay
CC(C)(CC(O)(Cn1cc(C#N)c2ccccc21)C(F)(F)F)c1cccc2c1OCC2 (stereo not drawn) [1-[4-(2,3-Dihydrobenzofuran-7-yl)-2-hydroxy-4-methyl-2-trifluoromethylpentyl]-1H-indole-3-carbonitrile] | potent activity
